In brackets after ≈: the same amount, converted by molar mass. Activity calls are given as the source filed them. No cut-off for these calls is given here.
Assays:
in vitro = details: human, liver microsomes
Description: Microsomal stability in human liver microsomes assessed as intrinsic clearance

[1] = Drug concentration in topically administered human skin epidermis by MALDI-IMS analysis; assay type: ADME, tissue-based; details: topical_or_ocular, route top, read-out: Drug uptake
[2] = […] in mouse 3T3 cells by neutral red uptake assay; assay type: toxicity, cell-based; details: nih3t3
[3] = Metabolic stability in rat hepatocytes assessed as intrinsic clearance; assay type: ADME, cell-based, Hepatocyte
[4] = Metabolic stability in minipig hepatocytes assessed as intrinsic clearance; assay type: ADME, cell-based, Sus scrofa domesticus, Hepatocyte; details: pig
JAK1/TYK2 = JAK1/TYK2 (Homo sapiens, UniProt P23458+P29597); assay type: cell-based, M07E
Description: Inhibition of JAK1/TYK2 in human M07E cells assessed as reduction of IFN alpha stimulated STAT phosphorylation preincubated for 30 mins followed by IFN alpha stimulation and measured after 15 mins by flow cytometry method

[5] = biological target: Glycogen synthase kinase-3 beta (Homo sapiens, UniProt P49841); experiment: Inhibition of GSK3B (unknown origin) by caliper microfluidic mobility shift technology
[6] = biological target: Tyrosine-protein kinase JAK2 (Homo sapiens, UniProt O60674)
[7] = Metabolic stability in human hepatocytes assessed as intrinsic clearance; assay type: ADME, cell-based, Hepatocyte
[8] = Lipophilicity, log D of the compound; assay type: physicochemical; details: octanol/water
Homo sapiens [9] = experiment: Inhibition of IL4/IL13 stimulated TARC gene expression in human fresh skin epidermal explant Franz cell model administered topically to human skin epidermis preincubated with compound overnight followed by IL4/IL13 stimulation and measured after 24 hrs by qRT-PCR analysis; assay type: functional, tissue-based; details: Skin of body, route top, time 32.0 hrs
[10] = Microsomal stability in minipig liver microsomes assessed as intrinsic clearance; assay type: ADME, Sus scrofa domesticus, Microsome; details: pig
[11] = Half life in rat; assay type: ADME; details: in vivo
[12] = biological target: T1, Tyrosine-protein kinase JAK3 (Homo sapiens, UniProt P52333)
T1 sequence (P52333 whole entry): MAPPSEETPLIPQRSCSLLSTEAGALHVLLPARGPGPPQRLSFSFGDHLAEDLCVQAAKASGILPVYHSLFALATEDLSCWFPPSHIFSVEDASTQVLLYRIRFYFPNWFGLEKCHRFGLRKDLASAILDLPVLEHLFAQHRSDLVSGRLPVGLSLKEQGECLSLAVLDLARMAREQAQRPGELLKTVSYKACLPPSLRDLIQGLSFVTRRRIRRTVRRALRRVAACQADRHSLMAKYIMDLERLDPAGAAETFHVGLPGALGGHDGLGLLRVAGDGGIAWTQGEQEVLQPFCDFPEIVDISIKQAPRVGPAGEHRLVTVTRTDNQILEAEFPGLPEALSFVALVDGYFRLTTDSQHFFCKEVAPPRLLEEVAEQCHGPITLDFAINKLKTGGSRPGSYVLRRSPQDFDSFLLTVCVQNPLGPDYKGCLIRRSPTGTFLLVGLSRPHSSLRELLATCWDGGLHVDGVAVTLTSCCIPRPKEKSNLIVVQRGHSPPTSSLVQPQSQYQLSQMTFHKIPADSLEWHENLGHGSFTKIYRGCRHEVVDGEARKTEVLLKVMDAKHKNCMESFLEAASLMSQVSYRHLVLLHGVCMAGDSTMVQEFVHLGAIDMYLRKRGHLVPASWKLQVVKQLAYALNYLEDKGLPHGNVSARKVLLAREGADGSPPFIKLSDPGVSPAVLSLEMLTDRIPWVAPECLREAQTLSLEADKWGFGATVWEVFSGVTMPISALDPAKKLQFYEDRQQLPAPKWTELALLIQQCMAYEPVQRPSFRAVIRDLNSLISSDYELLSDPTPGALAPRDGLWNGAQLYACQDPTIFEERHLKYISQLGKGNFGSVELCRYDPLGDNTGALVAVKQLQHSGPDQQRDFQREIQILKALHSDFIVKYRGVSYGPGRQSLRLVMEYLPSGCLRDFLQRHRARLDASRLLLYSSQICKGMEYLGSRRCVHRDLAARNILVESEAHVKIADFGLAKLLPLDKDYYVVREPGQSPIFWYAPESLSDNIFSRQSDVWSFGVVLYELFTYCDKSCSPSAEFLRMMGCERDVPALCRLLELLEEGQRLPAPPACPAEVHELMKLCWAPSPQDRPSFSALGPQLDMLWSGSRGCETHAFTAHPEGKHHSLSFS

[13] = biological target: T2, Janus Kinase (JAK) (Homo sapiens) (UniProt P52333+P23458+O60674+P29597); experiment: Inhibition of JAK in human skin assessed as reduction in TARC release at 1 uM incubated for 24 hrs in the presence of IL4/IL13 by MSD analysis relative to control; assay type: tissue-based; details: Skin of body
[14] = Half life in minipig; assay type: ADME, Sus scrofa domesticus; details: pig, in vivo
[15] = biological target: Non-receptor tyrosine-protein kinase TYK2 (Homo sapiens, UniProt P29597)
Description: Inhibition of TYK2 (unknown origin) by caliper technology

Homo sapiens [16] = experiment: Inhibition of IL4/IL13 stimulated Eotaxin 3 gene expression in human fresh skin epidermal explant Franz cell model administered topically to human skin epidermis preincubated with compound overnight followed by IL4/IL13 stimulation and measured after 24 hrs by qRT-PCR analysis; assay type: functional, tissue-based; details: Skin of body, route top, time 32.0 hrs
[17] = biological target: T2, Janus Kinase (JAK) (Homo sapiens); experiment: Inhibition of JAK in human skin assessed as reduction in TARC release at 10 uM incubated for 24 hrs in the presence of IL4/IL13 by MSD analysis relative to control; assay type: tissue-based; details: Skin of body
[18] = Plasma protein binding in human; assay type: ADME, cell-free; details: read-out: PPB
[19] = Microsomal stability in rat liver microsomes assessed as intrinsic clearance; assay type: ADME, Microsome
[20] = Clearance in rat; assay type: ADME; details: in vivo
JAK3/JAK1 [21] = biological target: T3, JAK3/JAK1 (Homo sapiens, UniProt P23458+P52333); assay type: tissue-based, Blood
Description: Inhibition of JAK1/JAK3 in human blood assessed as reduction of IL-2 stimulated STAT phosphorylation preincubated for 30 mins followed by IL-2 stimulation and measured after 15 mins by flow cytometry method

[22] = biological target: Tyrosine-protein kinase JAK1 (Homo sapiens, UniProt P23458)
[23] = Clearance in minipig; assay type: ADME, Sus scrofa domesticus; details: pig, in vivo
[24] = Drug uptake in topically administered human skin at 0.5 mm of depth by MALDI-IMS analysis; assay type: ADME, tissue-based, Skin of body; details: topical or ocular, route top, read-out: Drug uptake
Homo sapiens [25] = experiment: Inhibition of IL4/IL13 induced MMP12 gene expression in topically administered human skin preincubated with compound overnight followed by IL4/IL13 stimulation and measured after 3 hrs by qRT-PCR analysis; assay type: functional, tissue-based; details: Skin of body, route top, time 11.0 hrs
[26] = Drug exposure in topically dosed minipig and measured for 14 days; assay type: ADME, organism-based, Sus scrofa domesticus; details: pig, in vivo, topical_or_ocular, 336 h; route top, time 14 day
[27] = Drug excretion in iv dosed bile duct cannulated rat bile assessed as unchanged drug; assay type: ADME, organism-based; details: read-out: Drug excretion
[28] = biological target: Mitogen-activated protein kinase kinase kinase kinase 4 (Homo sapiens, UniProt O95819); experiment: Inhibition of MAP4K4 (unknown origin) by caliper microfluidic mobility shift technology
[29] = Aqueous solubility of the compound at pH 6.8; assay type: physicochemical
Homo sapiens [30] = experiment: Inhibition of IL4/IL13 stimulated MMP12 gene expression in human fresh skin epidermal explant Franz cell model administered topically to human skin epidermis preincubated with compound overnight followed by IL4/IL13 stimulation and measured after 24 hrs by qRT-PCR analysis; assay type: functional, tissue-based; details: Skin of body, route top, time 32.0 hrs
[31] = Drug uptake in topically administered human skin at 1 mm of depth by MALDI-IMS analysis; assay type: ADME, tissue-based, Skin of body; details: topical or ocular, route top, read-out: Drug uptake
JAK3/JAK1 [32] = biological target: T3, JAK3/JAK1; assay type: cell-based, M07E
Description: Inhibition of JAK1/JAK3 in human M07E cells assessed as reduction of IL-15 stimulated STAT phosphorylation preincubated for 30 mins followed by IL-15 stimulation and measured after 15 mins by flow cytometry analysis

[33] = biological target: T4, Signal transducer and activator of transcription 6 (Homo sapiens) (UniProt P42226); experiment: Inhibition of IL4/IL13 induced STAT6 phosphorylation in topically administered human skin assessed as reduction in phosphorylated STAT6 level preincubated with compound overnight followed by IL4/1L13 stimulation and measured after 3 hrs by Western blot analysis; assay type: tissue-based; details: Skin of body, route top, time 11.0 hrs
T4 sequence (whole entry): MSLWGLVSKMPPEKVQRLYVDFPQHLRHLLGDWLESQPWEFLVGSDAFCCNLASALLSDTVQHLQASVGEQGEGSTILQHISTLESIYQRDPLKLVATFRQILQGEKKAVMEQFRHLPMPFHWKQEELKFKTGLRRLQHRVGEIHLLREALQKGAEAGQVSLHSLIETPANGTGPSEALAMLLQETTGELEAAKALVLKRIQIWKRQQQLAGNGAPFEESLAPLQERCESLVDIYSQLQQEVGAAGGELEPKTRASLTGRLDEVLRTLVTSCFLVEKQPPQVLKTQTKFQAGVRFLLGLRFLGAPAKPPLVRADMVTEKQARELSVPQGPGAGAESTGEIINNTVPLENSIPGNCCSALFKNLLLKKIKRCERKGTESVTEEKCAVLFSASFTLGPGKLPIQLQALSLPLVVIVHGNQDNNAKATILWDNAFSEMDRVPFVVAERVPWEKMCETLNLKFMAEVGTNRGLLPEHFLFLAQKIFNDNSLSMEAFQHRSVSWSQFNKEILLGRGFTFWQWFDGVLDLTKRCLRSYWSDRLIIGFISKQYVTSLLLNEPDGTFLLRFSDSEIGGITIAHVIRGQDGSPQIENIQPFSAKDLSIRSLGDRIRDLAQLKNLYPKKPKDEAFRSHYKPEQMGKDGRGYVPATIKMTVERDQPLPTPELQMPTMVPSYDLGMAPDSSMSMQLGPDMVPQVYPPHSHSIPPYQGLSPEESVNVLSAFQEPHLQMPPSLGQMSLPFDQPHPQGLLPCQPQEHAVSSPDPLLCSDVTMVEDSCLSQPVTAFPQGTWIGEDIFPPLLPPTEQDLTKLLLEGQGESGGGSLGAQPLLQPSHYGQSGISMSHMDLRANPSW

[34] = Drug excretion in iv dosed bile duct cannulated rat urine assessed as unchanged drug; assay type: ADME, organism-based; details: read-out: Drug excretion

T3 sequence (P23458 whole entry, one chain of several): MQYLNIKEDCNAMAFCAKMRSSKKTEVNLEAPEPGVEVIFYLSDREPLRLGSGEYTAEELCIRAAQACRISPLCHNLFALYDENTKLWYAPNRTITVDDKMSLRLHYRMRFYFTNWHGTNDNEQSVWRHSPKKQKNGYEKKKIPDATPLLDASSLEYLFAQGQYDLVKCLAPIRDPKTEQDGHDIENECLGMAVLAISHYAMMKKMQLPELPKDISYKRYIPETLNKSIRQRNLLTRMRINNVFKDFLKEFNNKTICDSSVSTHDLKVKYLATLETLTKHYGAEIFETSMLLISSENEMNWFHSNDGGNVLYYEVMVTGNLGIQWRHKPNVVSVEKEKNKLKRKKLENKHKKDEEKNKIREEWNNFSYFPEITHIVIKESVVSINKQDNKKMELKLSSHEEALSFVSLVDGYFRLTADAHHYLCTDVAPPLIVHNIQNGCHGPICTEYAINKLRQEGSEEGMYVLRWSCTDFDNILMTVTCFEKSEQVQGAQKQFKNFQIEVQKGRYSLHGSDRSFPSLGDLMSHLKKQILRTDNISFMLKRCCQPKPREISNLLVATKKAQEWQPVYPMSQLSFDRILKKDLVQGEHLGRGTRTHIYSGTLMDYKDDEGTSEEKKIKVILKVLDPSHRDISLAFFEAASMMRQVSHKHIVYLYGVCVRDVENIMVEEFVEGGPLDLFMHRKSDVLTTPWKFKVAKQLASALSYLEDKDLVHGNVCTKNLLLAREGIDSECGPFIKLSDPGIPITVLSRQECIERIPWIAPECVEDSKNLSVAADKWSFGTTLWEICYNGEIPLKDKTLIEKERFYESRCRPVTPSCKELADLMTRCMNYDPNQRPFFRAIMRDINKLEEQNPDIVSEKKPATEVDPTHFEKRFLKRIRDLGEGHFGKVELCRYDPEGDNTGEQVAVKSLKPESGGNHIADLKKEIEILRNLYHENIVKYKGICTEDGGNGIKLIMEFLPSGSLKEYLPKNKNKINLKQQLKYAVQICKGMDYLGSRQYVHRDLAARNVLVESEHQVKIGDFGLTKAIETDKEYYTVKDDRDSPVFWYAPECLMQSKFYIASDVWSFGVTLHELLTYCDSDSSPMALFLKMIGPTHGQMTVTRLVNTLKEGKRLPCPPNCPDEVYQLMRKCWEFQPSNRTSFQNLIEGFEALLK
Non-receptor tyrosine-protein kinase TYK2, sequence (P29597 whole entry): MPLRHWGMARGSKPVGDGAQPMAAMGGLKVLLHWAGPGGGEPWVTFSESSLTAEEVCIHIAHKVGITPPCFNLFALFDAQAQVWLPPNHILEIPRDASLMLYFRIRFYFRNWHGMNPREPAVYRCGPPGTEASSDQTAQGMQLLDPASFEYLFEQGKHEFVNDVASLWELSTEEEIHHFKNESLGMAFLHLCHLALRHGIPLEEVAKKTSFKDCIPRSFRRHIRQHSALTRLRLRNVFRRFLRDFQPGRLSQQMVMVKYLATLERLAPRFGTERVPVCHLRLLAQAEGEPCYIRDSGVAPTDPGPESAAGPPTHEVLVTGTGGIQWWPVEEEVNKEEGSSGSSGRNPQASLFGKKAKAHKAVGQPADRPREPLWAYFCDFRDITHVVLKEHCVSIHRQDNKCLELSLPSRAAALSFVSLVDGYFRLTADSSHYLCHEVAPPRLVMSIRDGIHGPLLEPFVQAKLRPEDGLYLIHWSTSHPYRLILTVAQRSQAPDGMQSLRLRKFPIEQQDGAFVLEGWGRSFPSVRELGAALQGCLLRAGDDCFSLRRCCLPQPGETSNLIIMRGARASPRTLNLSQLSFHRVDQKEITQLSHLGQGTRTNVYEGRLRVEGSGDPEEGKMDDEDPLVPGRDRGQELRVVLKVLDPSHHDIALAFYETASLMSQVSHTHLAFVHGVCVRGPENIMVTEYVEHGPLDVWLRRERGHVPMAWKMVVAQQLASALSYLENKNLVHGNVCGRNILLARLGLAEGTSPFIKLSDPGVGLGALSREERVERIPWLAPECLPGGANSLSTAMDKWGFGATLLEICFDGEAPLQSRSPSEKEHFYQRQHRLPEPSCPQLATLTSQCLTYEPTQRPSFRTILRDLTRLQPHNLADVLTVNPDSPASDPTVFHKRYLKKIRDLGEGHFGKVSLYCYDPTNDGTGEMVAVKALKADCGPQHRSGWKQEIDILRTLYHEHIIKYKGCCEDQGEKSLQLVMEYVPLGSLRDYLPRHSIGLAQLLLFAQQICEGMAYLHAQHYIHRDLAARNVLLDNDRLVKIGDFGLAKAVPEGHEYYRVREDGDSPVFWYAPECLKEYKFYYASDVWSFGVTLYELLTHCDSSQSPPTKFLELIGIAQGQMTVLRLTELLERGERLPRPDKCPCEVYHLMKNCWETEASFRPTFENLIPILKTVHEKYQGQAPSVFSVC
Tyrosine-protein kinase JAK2, sequence (O60674 whole entry): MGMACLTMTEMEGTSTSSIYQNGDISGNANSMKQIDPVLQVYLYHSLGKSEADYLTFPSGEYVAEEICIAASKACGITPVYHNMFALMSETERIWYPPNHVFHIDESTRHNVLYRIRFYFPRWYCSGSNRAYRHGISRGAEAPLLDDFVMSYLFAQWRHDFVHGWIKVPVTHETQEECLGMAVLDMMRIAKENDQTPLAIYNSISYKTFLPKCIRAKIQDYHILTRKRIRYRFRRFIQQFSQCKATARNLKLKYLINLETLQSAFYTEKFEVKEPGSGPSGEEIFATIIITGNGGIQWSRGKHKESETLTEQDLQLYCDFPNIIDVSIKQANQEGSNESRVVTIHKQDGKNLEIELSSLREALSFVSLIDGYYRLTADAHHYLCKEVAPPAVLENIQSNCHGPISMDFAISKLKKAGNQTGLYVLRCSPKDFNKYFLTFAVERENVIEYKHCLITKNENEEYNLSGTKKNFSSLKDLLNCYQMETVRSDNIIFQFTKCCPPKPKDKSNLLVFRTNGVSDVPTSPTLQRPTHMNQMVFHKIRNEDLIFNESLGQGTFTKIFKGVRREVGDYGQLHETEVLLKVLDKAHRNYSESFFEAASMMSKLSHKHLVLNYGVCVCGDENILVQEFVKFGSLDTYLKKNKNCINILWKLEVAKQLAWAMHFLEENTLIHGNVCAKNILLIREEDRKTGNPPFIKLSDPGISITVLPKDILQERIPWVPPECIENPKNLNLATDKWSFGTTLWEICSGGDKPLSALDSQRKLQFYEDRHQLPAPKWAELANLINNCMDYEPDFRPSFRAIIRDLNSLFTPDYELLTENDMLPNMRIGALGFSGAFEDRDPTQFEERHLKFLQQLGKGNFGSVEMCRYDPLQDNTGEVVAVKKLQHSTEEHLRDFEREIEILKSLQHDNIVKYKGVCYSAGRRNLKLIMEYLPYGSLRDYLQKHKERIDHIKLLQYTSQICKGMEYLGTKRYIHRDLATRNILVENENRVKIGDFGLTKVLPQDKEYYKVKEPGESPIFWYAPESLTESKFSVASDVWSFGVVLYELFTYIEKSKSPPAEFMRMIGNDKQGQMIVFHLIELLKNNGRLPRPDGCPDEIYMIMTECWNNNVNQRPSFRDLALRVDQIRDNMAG
T2 sequence (O60674 whole entry, looked up, one chain of several): as the sequence (O60674 whole entry) above
T2 sequence (P23458 whole entry, looked up, one chain of several): as the sequence (P23458 whole entry, one chain of several) above
T2 sequence (P29597 whole entry, looked up, one chain of several): as the sequence (P29597 whole entry) above
Tyrosine-protein kinase JAK1, sequence (P23458 whole entry): as the sequence (P23458 whole entry, one chain of several) above
JAK1/TYK2, sequence (P23458 whole entry): as the sequence (P23458 whole entry, one chain of several) above
JAK1/TYK2, sequence (P29597 whole entry): as the sequence (P29597 whole entry) above
Mitogen-activated protein kinase kinase kinase kinase 4, sequence (O95819 whole entry): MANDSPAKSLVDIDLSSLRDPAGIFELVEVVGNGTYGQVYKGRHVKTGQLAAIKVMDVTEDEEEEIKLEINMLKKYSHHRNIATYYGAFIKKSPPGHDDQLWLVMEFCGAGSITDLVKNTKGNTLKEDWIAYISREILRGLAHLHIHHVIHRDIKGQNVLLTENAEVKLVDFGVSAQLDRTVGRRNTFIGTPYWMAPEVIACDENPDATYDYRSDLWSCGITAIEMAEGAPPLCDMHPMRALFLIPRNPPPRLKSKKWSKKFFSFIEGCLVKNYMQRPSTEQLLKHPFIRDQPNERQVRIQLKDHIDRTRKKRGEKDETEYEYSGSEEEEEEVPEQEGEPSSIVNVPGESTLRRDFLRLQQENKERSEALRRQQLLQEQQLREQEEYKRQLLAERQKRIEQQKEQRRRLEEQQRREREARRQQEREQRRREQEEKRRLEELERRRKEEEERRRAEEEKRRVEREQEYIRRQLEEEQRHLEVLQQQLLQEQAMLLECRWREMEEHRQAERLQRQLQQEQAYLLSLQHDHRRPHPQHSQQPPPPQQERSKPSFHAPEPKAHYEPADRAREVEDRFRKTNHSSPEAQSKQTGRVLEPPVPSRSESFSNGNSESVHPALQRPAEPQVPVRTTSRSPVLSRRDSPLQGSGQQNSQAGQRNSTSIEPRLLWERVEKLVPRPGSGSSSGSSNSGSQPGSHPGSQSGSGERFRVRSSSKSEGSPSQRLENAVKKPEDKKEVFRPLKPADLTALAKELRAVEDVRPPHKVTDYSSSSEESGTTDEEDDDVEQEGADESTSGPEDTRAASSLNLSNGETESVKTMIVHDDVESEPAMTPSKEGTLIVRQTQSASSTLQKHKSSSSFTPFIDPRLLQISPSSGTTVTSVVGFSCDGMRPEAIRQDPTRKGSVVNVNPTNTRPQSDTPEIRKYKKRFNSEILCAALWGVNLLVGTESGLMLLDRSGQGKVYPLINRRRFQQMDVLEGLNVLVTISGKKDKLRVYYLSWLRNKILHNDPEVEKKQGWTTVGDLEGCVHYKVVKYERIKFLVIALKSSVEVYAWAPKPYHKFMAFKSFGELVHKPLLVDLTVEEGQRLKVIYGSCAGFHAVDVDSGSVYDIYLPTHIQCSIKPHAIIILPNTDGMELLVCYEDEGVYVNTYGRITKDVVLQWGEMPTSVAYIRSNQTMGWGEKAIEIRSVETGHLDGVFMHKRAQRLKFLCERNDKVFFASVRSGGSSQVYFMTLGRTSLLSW

SMILES: Cn1cc(Nc2nccc(N3CC4CCC(C3)N4C(=O)[C@@H]3CC3(F)F)n2)cn1
- microsomal CLint (in vitro): < 25 µL/min/mg

SMILES: N#CC[C@H](C1CCCC1)n1cc(-c2ncnc3[nH]ccc23)cn1 [RUXOLITINIB]
- microsomal CLint (in vitro): 40 µL/min/mg

SMILES: Cc1cccc(Nc2cc(Nc3ccccc3Cl)c(C(N)=O)cn2)n1
- concentration [1]: 13 µM
- Activity [2]: Non-Toxic
- CLH [3]: 94 mL·min/g
- CLH [4]: 38 mL·min/g
- IC50 (JAK1/TYK2): 85 nM
- IC50 [5]: 380 nM
- IC50 [6]: 48 nM
- CLH [7]: 47 mL·min/g
- logD [8]: 4.3
- inhibition (Homo sapiens [9]): Active
- CLH [10]: 67 mL·min/g
- half-life [11]: 30 min
- microsomal CLint (in vitro): 166 µL/min/mg
- IC50 [12]: 59 nM
- inhibition [13]: 74%
- half-life [14]: 60 min
- IC50 [15]: 50 nM
- inhibition (Homo sapiens [16]): Active
- inhibition [17]: 100%
- fraction unbound [18]: < 0.01
- CLH [19]: 204 mL·min/g
- clearance [20]: 82 mL/min/kg
- IC50 (JAK3/JAK1 [21]): 2350 nM
- IC50 [22]: 50 nM
- CL [23]: 52 mL/min/g
- concentration at 500 µM [24]: 3.51 µM
- inhibition (Homo sapiens [25]): Active
- Drug uptake [26]: < 1 nM
- dose excreted [27]: < 1%
- IC50 [28]: 110 nM
- solubility [29]: 0.2 µM (≈ 0.0708 µg/mL)
- inhibition (Homo sapiens [30]): Active
- concentration at 1000 µM [31]: 1.68 µM
- IC50 (JAK3/JAK1 [32]): 54 nM
- inhibition [33]: Active
- dose excreted [34]: 1.3%

SMILES: C[C@H]1CN(C(=O)CC#N)[C@]12CCN(c1ncnc3[nH]ccc13)C2 [DELGOCITINIB]
- microsomal CLint (in vitro): < 25 µL/min/mg

SMILES: COc1ccccc1Nc1cc(Nc2cccnn2)ncc1C(N)=O
- IC50 (JAK1/TYK2): 51 nM
- IC50 [6]: 29 nM
- logD [8]: 2.4
- microsomal CLint (in vitro): 127 µL/min/mg
- IC50 [12]: 39 nM
- IC50 [15]: 19 nM
- IC50 (JAK3/JAK1 [21]): 486 nM
- IC50 [22]: 29 nM
- IC50 (JAK3/JAK1 [32]): 66 nM
